In patent US7759337B2, “Phthalazine compounds and methods of use” (Amgen Inc., priority 2005, dated 2010):

Test system: production of TNF by monocytes activated with bacterial lipopolysaccharide (LPS)
Test: Lipopolysaccharide-activated monocyte TNF production assay
Format: cell-based
Conditions: Homo sapiens; whole blood monocyte assay (LPS induced TNF release)
Experimental: Test compounds were evaluated in vitro for the ability to inhibit the production of TNF by monocytes activated with bacterial lipopolysaccharide (LPS). Fresh residual source leukocytes (a byproduct of plateletpheresis) were obtained from a local blood bank, and peripheral blood mononuclear cells (PBMCs) were isolated by density gradient centrifugation on Ficol-Paque Plus (Pharmacia). PBMCs were suspended at 2×10^6/mL in DMEM supplemented to contain 2% FCS, 10 mM, 0.3 mg/mL […], 100 U/mL penicillin G and […] streptomycin sulfate (complete media). Cells were plated into Falcon flat bottom, 96 well culture plates (200 μL/well) and cultured overnight at 37° C. and 6% CO2. Non-adherent cells were removed by washing with 200 μl/well of fresh medium.
Test compounds were dissolved in […]. Compound stock solutions were prepared to an initial concentration of […]. Stocks were diluted initially to 20-200 μM in complete media. Nine two-fold serial dilutions of each compound were then prepared in complete medium.
One hundred microliters of each test compound dilution were added to microtiter wells containing adherent monocytes and 100 μL complete medium. Monocytes were cultured with test compounds for 60 min at which time 25 μL of complete medium containing 30 ng/mL lipopolysaccharide from E. coli K532 were added to each well. Cells were cultured an additional 4 hrs. Culture supernatants were then removed and TNF presence in the supernatants was quantified using an ELISA.
Flat bottom, 96 well Corning High Binding ELISA plates were coated overnight (4° C.) with 150 μL/well of 3 μg/mL murine anti-human TNF-α MAb (R&D Systems #MAB210). Wells were then blocked for 1 h at room temperature with 200 μL/well of CaCl2-free ELISA buffer supplemented to contain 20 mg/mL BSA (standard ELISA buffer: […], 150 mM NaCl, 2 mM CaCl2, 0.15 mM thimerosal, pH 7.4). Plates were washed and replenished with 100 μL of test supernatants (diluted 1:3) or standards. Standards consisted of eleven 1.5-fold serial dilutions from a stock of I ng/mL recombinant human TNF (R&D Systems). Plates were incubated at room temperature for 1 h on orbital shaker (300 rpm), washed and replenished with 100 μL/well of 0.5 μg/mL goat anti-human TNF-α (R&D systems #AB-210-NA) biotinylated at a 4:1 ratio. Plates were incubated for 40 min, washed and replenished with 100 μL/well of alkaline phosphatase-conjugated streptavidin (Jackson ImmunoResearch #016-050-084) at 0.02 μg/mL. Plates were incubated 30 min, washed and replenished with 200 μL/well of 1 mg/mL of p-nitrophenyl phosphate. After 30 min, plates were read at 405 nm on a Vmax plate reader.
Standard curve data were fit to a second order polynomial and unknown TNF-α concentrations determined from their OD by solving this equation for concentration. TNF concentrations were then plotted vs. test compound concentration using a second order polynomial. This equation was then used to calculate the concentration of test compounds causing a 50% reduction in TNF production.

Compound | IC50 [µM]
CNC(=O)c1ccc(C)c(-c2ccc3c(NC(C)C)nncc3c2)c1 [Example 10, 3-(1-(isopropylamino)phthalazin-6-yl)-N,4-dimethylbenzamide] | ≤ 5
Cc1ccc(C(=O)NC2CC2)cc1-c1ccc2c(-c3ccc(C(F)(F)F)cc3C(F)(F)F)nncc2c1 [Example 11, 3-(1-(2,4-bis(trifluoromethyl)phenyl)phthalazin-6-yl)-N-cyclopropyl-4-methylbenzamide] | ≤ 5
Fc1ccc(Oc2ccc3c(-c4ccccc4Cl)nncc3c2)cc1 [Example 12, 1-(2-chlorophenyl)-6-(4-fluorophenoxy)phthalazine] | ≤ 5
Cc1ccc(C(=O)NC2CC2)cc1-c1ccc2c(C(C)C)nncc2c1 [Example 13, N-Cyclopropyl-3-(1-isopropylphthalazin-6-yl)-4-methylbenzamide] | ≤ 5
Cc1ccc2c(NC3CC3)noc2c1-c1ccc2c(N3CCOC[C@@H]3C)nncc2c1 [Example 14, N-cyclopropyl-6-methyl-7-(1-((S)-3-methylmorpholino)phthalazin-6-yl)benzo[d]isoxazol-3-amine] | ≤ 5
CNc1noc2c(-c3ccc4c(N5CCOC[C@@H]5C)nncc4c3)c(Cl)ccc12 [Example 15, 6-chloro-N-methyl-7-(1-((S)-3-methylmorpholino)phthalazin-6-yl)benzo[d]isoxazol-3-amine] | ≤ 5
C[C@H]1COCCN1c1nncc2cc(-c3ccc(C(F)(F)F)c4c(NC(C)(C)C)noc34)ccc12 [Example 16, N-tert-butyl-7-(1-((S)-3-methylmorpholino)phthalazin-6-yl)-4-(trifluoromethyl)benzo[d]isoxazol-3-amine] | ≤ 5
Cc1ccccc1-c1ccc2c(N3CCOCC3c3ccc(Cl)cc3)nncc2c1 (stereo not shown) [Example 17, 1-(3-(4-chlorophenyl)morpholino)-6-o-tolylphthalazine] | ≤ 5
Cc1ccc(-c2nncc3cc(-c4cc(C(=O)NC5CC5)ccc4C)ccc23)c(C)c1 [Example 18, N-cyclopropyl-3-[1-(2,4-dimethylphenyl)phthalazin-6-yl]-4-methylbenzamide] | ≤ 5
Cc1ccc(C(=O)NC2CC2)cc1-c1ccc2c(N3CC4CC3CN4)nncc2c1 (stereo not shown) [Example 20, 3-(1-(2,5-diaza-bicyclo[2.2.1]heptan-2-yl)phthalazin-6-yl)-N-cyclopropyl-4-methylbenzamide] | ≤ 5
Cc1ccc(C(=O)NC2CC2)cc1-c1ccc2c(N3CCN(C)CC3)nncc2c1 [Example 23, N-cyclopropyl-4-methyl-3-(1-(4-methylpiperazin-1-yl)phthalazin-6-yl)benzamide] | ≤ 5
Cc1ccc(C(=O)NC2CC2)cc1-c1ccc2c(N3CC4CC3CO4)nncc2c1 (stereo not shown) [Example 27, 3-(1-(5-oxa-2-aza-bicyclo[2.2.1]heptan-2-yl)phthalazin-6-yl)-N-cyclopropyl-4-methylbenzamide] | ≤ 5
Cc1ccc(C(=O)NC2CC2)cc1-c1ccc2c(N3CCCC(C(N)=O)C3)nncc2c1 (stereo not shown) [Example 29, 1-(6-(5-(cyclopropylcarbamoyl)-2-methylphenyl)phthalazin-1-yl)piperidine-3-carboxamide] | ≤ 5
O=C(NC1CC1)c1ccc(Cl)c(-c2ccc3c(N4CCOCC4)nncc3c2)c1 [Example 38, 4-chloro-N-cyclopropyl-3-(1-morpholinophthalazin-6-yl)benzamide] | ≤ 5
CCNC(=O)c1ccc(C)c(-c2ccc3c(N4CCOCC4)nncc3c2)c1 [Example 41, N-ethyl-4-methyl-3-(1-morpholinophthalazin-6-yl)benzamide] | ≤ 5
COc1ccc(C(F)(F)F)cc1NC(=O)c1ccc(C)c(-c2ccc3c(N4CCOCC4)nncc3c2)c1 [Example 43, N-(2-methoxy-5-(trifluoromethyl)phenyl)-4-methyl-3-(1-morpholinophthalazin-6-yl)benzamide] | ≤ 5
Cc1cc(C(=O)NC2CC2)sc1-c1ccc2c(N3CCOCC3)nncc2c1 [Example 46, N-cyclopropyl-4-methyl-5-(1-morpholinophthalazin-6-yl)thiophene-2-carboxamide] | ≤ 5

Compound | IC50 [µM]
Cc1cc(C(=O)O)sc1-c1ccc2c(N3CCOCC3)nncc2c1 [Example 47, 4-methyl-5-(1-morpholinophthalazin-6-yl)thiophene-2-carboxylic acid] | ≤ 5
CCSc1nncc2cc(-c3cc(C(=O)NC4CC4)ccc3C)ccc12 [Example 55, N-cyclopropyl-3-(1-(ethylthio)phthalazin-6-yl)-4-methylbenzamide] | ≤ 5
Cc1ccc(C(=O)NC2CC2)cc1-c1ccc2c(N3CCC(=O)CC3)nncc2c1 [Example 58, N-cyclopropyl-4-methyl-3-[1-(4-oxopiperidin-1-yl)phthalazin-6-yl]benzamide] | ≤ 5
Cc1ccc(C(N)=O)cc1-c1ccc2c(N3CC[S+]([O-])CC3)nncc2c1 [Example 60, 4-methyl-3-[1-(1-oxidothiomorpholin-4-yl)phthalazin-6-yl]benzamide] | ≤ 5
Cc1ccc(C(=O)NC2CC2)cc1-c1ccc2c(N3CCC(O)(C(C)C)CC3)nncc2c1 [Example 61, N-cyclopropyl-3-(1-(4-hydroxy-4-isopropylpiperidin-1-yl)phthalazin-6-yl)-4-methylbenzamide] | ≤ 5
Cc1ccc(C(=O)NC2CC2)cc1-c1ccc2c(C3=CCNCC3)nncc2c1 [Example 62, N-cyclopropyl-4-methyl-3-(1-(1,2,3,6-tetrahydropyridin-4-yl)phthalazin-6-yl)benzamide] | ≤ 5
Cc1ccc(C(=O)NC2CC2)cc1-c1ccc2c(N3CCNC[C@@H]3C)nncc2c1 [Example 63, N-cyclopropyl-4-methyl-3-(1-((S)-2-methylpiperazin-1-yl)phthalazin-6-yl)benzamide] | ≤ 5
Cc1ccc(C(=O)NC2CC2)cc1-c1ccc2c(C3CCNCC3)nncc2c1 [Example 64, N-cyclopropyl-4-methyl-3-(1-(piperidin-4-yl)phthalazin-6-yl)benzamide] | ≤ 5
CNc1noc2c(-c3ccc4c(N5C[C@@H](C)OC[C@H]5C)nncc4c3)c(C)ccc12 [Example 65, 7-(1-((2R,5R)-2,5-dimethylmorpholino)phthalazin-6-yl)-N,6-dimethylbenzo [d]isoxazol-3-amine] | ≤ 5
CC(=O)N1CCN(c2nncc3cc(-c4cc(C(=O)N(C(C)=O)C5CC5)ccc4C)ccc23)CC1 [Example 66, N-acetyl-3-(1-(4-acetylpiperazin-1-yl)phthalazin-6-yl)-N-cyclopropyl-4-methylbenzamide] | ≤ 5
CC(=O)N1CCC(c2nncc3cc(-c4cc(C(=O)NC5CC5)ccc4C)ccc23)CC1 [Example 67, 3-(1-(1-acetylpiperidin-4-yl)phthalazin-6-yl)-N-cyclopropyl-4-methylbenzamide] | ≤ 5
Cc1ccc(C(=O)NC2CC2)cc1-c1ccc2c(N3C(C)CC[C@@H]3C(=O)NC(C)C)nncc2c1 (stereo partly drawn) [Example 68, (2R)-1-(6-(5-(Cyclopropylcarbamoyl)-2-methylphenyl)phthalazin-1-yl)-N-isopropyl-5-methylpyrrolidine-2-carboxamide] | ≤ 5
O=C(NC1CC1)c1cccc(-c2ccc3c(N4CCOCC4)nncc3c2)c1 [Example 69, N-Cyclopropyl-3-(1-morpholin-4-ylphthalazin-6-yl)benzamide] | ≤ 5
Cc1ccc(C(=O)NC2CC2)cc1-c1ccc2c(C(=O)NC(C)C)nncc2c1 [Example 70, 6-{5-[(Cyclopropylamino)carbonyl]-2-methylphenyl}-N-isopropylphthalazine-1-carboxamide] | ≤ 5
O=C(NC1CC1)c1ccc(F)c(-c2ccc3c(N4CCOCC4)nncc3c2)c1 [Example 72, N-Cyclopropyl-4-fluoro-3-(1-morpholin-4-ylphthalazin-6-yl)benzamide] | ≤ 5
NC(=O)c1ccc(Cl)c(-c2ccc3c(N4CCOCC4)nncc3c2)c1 [Example 73, 4-Chloro-3-(1-morpholin-4-ylphthalazin-6-yl)benzamide] | ≤ 5
Cc1ccc(C(=O)NC2CC2)cc1-c1ccc2c(N3CCOC[C@H]3C)nncc2c1 [Example 75, N-Cyclopropyl-4-methyl-3-{1-[(3R)-3-methylmorpholin-4-yl]phthalazin-6-yl}benzamide] | ≤ 5
